We go through 12 compounds from ChEMBL document CHEMBL5291721, “A preclinical secondary pharmacology resource illuminates target-adverse drug reaction associations of marketed drugs” (Nat Commun, 2023).

Test [1] addresses T1, D(1A) dopamine receptor (Homo sapiens, UniProt P21728). The class given is functional, cell-based.
Test [2] has as its target Vascular endothelial growth factor receptor 2 (Homo sapiens, UniProt P35968). The class given is functional.
Test [3] addresses T2, Estrogen receptor (Homo sapiens, UniProt P03372).
T2 sequence (P03372 whole entry): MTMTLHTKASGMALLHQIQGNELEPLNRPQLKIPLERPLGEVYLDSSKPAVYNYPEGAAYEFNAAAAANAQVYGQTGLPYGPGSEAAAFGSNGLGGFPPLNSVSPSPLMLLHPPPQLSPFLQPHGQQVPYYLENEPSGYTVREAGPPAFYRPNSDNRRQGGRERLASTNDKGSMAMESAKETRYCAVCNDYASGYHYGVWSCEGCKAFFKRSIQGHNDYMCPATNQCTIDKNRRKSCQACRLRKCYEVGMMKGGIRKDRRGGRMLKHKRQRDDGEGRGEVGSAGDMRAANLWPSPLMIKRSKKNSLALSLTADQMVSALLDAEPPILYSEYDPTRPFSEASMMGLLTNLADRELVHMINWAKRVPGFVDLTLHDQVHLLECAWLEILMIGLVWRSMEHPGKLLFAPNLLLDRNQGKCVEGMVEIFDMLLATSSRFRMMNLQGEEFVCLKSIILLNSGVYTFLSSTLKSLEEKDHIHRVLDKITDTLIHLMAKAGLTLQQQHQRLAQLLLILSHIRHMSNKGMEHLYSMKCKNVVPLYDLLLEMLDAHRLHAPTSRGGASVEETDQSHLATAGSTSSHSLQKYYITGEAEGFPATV
The class given is functional.

For test [4], the target named is Gamma-aminobutyric acid receptor subunit alpha-1/alpha-2/beta-2/gamma-2 (Homo sapiens, UniProt P14867+P18507+P47869+P47870). The class given is functional, cell-based.
Chain of Gamma-aminobutyric acid receptor subunit alpha-1/alpha-2/beta-2/gamma-2 (P14867 whole entry): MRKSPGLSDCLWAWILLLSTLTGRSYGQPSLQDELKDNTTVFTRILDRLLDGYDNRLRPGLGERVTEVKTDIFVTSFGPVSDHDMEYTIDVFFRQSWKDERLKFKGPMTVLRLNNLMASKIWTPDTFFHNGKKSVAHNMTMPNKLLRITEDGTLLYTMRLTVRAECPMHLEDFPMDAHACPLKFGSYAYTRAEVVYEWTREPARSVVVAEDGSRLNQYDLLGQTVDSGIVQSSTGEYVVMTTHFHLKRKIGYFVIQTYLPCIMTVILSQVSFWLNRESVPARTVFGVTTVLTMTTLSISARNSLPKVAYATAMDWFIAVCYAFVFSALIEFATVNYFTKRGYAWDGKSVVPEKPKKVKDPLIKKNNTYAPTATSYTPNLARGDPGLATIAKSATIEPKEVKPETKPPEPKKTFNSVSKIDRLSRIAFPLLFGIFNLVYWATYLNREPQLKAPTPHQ
Chain of Gamma-aminobutyric acid receptor subunit alpha-1/alpha-2/beta-2/gamma-2 (P47870 whole entry): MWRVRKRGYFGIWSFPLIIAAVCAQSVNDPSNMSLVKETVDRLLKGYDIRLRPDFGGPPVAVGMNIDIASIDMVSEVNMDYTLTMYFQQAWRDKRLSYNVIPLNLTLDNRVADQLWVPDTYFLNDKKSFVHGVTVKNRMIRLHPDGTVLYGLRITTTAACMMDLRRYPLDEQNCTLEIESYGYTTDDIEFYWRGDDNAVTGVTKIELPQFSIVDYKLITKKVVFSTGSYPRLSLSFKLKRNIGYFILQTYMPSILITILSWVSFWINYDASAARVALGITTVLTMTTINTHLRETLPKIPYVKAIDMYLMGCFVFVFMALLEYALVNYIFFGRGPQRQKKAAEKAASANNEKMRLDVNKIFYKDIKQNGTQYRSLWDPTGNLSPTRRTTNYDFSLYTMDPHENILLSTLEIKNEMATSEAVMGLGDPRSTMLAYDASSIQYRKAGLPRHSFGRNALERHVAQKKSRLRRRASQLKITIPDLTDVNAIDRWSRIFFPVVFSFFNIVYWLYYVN
Chain of Gamma-aminobutyric acid receptor subunit alpha-1/alpha-2/beta-2/gamma-2 (P18507 whole entry): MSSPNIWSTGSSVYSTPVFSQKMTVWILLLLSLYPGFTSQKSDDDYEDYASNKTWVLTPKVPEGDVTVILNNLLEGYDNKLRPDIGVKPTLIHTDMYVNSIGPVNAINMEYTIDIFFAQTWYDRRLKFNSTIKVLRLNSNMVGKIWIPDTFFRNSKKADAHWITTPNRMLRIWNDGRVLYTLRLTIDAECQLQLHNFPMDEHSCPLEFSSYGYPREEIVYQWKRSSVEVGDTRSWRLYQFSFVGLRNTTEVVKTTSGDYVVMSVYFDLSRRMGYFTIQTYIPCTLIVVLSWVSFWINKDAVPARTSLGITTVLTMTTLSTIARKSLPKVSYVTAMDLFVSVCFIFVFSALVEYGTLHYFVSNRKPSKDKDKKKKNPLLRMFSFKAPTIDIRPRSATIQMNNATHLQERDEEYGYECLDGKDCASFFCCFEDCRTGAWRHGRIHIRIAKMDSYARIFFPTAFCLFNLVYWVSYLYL
Chain of Gamma-aminobutyric acid receptor subunit alpha-1/alpha-2/beta-2/gamma-2 (P47869 whole entry): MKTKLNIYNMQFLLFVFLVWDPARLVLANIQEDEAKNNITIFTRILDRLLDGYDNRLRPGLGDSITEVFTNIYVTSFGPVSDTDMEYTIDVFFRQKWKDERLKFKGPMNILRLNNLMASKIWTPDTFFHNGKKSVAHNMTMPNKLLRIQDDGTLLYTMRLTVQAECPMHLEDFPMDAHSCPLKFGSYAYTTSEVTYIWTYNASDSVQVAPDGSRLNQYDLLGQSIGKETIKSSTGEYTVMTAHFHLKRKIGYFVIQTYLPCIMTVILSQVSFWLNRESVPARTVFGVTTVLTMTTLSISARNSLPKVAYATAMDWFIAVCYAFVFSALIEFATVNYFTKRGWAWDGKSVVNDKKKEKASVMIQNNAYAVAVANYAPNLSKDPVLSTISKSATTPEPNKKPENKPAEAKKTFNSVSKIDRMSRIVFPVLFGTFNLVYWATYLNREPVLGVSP
Test [5] addresses T2, Estrogen receptor. The class given is functional. The source holds these as a separate data set.
Test [6] addresses T3, Peroxisome proliferator-activated receptor gamma (Homo sapiens, UniProt P37231).
T3 sequence (P37231 whole entry): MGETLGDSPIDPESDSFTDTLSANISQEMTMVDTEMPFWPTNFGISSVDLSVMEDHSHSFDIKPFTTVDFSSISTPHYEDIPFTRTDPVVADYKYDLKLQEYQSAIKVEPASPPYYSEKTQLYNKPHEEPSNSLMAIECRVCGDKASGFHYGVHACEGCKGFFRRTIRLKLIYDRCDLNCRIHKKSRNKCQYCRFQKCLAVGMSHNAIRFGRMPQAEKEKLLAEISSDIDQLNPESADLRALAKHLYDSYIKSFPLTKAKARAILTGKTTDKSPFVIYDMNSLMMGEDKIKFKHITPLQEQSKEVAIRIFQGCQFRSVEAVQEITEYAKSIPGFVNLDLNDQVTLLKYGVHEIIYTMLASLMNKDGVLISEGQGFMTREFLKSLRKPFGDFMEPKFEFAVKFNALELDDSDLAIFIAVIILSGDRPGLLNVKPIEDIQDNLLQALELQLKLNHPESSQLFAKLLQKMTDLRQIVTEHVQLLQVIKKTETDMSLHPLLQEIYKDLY
The class given is functional.

The target of a further test is T4, B1 bradykinin receptor (Homo sapiens, UniProt P46663).
T4 sequence (P46663 whole entry): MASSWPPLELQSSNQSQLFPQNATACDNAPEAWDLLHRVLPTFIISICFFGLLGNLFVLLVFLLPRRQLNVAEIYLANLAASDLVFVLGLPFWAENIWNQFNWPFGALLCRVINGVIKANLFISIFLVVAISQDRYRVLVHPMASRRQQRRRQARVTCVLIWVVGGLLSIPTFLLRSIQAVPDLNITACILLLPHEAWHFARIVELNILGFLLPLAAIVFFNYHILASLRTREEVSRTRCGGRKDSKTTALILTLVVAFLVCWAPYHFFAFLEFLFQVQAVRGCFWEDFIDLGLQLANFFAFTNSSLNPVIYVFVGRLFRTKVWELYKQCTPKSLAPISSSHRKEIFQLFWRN

The target in test [7] is T5, Endothelin receptor type B (Homo sapiens, UniProt P24530).
T5 sequence (P24530 whole entry): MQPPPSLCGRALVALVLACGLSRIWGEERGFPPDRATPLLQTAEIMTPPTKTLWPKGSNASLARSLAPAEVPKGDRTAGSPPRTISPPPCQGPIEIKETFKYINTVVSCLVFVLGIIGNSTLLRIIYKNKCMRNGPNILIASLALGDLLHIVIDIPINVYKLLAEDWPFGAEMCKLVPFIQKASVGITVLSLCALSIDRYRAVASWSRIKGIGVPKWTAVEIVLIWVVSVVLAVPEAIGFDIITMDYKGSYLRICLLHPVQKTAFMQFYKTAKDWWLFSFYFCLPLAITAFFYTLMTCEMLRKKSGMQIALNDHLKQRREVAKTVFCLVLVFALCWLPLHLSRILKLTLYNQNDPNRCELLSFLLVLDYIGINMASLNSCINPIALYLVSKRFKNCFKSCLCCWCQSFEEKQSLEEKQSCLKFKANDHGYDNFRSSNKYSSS

Test [8] has as its target T1, D(1A) dopamine receptor.
The target in a further test is Substance-P receptor (Homo sapiens, UniProt P25103).
In test [9] the target is Neurotensin receptor type 1 (Homo sapiens, UniProt P30989).
Chain of Neurotensin receptor type 1 (P30989 whole entry): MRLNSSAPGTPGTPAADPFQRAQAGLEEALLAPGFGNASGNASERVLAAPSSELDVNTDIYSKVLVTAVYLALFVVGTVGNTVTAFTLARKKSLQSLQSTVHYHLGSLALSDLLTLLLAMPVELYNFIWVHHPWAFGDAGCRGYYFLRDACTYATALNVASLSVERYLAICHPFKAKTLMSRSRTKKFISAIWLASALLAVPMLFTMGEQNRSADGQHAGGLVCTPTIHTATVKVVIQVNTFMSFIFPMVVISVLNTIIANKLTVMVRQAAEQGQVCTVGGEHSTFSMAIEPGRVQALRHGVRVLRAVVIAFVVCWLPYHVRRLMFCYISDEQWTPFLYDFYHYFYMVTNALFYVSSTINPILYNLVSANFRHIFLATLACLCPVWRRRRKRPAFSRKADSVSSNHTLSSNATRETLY
In test [10] the target is Beta-3 adrenergic receptor (Homo sapiens, UniProt P13945).
Chain of Beta-3 adrenergic receptor (P13945 whole entry): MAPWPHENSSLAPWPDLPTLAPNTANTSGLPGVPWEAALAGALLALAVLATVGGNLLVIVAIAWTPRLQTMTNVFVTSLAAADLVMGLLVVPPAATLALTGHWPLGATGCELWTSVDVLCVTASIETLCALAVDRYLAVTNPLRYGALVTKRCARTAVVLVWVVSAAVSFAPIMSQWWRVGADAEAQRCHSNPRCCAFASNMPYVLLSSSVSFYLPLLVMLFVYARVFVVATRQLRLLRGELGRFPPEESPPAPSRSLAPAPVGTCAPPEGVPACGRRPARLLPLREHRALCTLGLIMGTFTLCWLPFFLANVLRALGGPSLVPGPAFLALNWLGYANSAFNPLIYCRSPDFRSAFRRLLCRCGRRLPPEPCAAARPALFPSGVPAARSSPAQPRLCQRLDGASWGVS
The target in a further test is Histamine H2 receptor (Homo sapiens, UniProt P25021).
Chain of Histamine H2 receptor (P25021 whole entry): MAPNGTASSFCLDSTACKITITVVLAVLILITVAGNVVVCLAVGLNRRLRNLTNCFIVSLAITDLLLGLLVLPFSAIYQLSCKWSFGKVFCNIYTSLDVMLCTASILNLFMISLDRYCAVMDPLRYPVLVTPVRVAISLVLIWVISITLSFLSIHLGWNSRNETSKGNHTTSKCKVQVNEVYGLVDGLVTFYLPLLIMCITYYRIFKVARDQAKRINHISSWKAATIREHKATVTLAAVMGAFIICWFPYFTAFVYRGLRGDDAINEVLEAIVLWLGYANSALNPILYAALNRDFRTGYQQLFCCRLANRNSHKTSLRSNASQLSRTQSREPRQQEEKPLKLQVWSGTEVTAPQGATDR
Test [11] concerns the target T6, Neuropeptide Y receptor type 2 (Homo sapiens, UniProt P49146).
T6 sequence (P49146 whole entry): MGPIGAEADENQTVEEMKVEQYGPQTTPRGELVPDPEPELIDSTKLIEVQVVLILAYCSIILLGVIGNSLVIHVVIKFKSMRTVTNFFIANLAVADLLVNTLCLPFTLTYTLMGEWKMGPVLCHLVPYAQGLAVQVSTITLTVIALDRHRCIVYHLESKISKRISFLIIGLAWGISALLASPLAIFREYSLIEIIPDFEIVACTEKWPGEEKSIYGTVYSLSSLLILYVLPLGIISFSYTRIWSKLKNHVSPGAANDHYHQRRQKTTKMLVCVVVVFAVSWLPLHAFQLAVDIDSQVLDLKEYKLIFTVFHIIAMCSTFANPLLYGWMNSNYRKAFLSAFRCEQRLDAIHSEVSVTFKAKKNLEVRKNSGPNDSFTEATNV

In test [12] the target is T2, Estrogen receptor.

A value given as a limit tells only on which side of the number the result lay.
Further: assay procedure not described here.

Chain of Vascular endothelial growth factor receptor 2 (P35968 whole entry): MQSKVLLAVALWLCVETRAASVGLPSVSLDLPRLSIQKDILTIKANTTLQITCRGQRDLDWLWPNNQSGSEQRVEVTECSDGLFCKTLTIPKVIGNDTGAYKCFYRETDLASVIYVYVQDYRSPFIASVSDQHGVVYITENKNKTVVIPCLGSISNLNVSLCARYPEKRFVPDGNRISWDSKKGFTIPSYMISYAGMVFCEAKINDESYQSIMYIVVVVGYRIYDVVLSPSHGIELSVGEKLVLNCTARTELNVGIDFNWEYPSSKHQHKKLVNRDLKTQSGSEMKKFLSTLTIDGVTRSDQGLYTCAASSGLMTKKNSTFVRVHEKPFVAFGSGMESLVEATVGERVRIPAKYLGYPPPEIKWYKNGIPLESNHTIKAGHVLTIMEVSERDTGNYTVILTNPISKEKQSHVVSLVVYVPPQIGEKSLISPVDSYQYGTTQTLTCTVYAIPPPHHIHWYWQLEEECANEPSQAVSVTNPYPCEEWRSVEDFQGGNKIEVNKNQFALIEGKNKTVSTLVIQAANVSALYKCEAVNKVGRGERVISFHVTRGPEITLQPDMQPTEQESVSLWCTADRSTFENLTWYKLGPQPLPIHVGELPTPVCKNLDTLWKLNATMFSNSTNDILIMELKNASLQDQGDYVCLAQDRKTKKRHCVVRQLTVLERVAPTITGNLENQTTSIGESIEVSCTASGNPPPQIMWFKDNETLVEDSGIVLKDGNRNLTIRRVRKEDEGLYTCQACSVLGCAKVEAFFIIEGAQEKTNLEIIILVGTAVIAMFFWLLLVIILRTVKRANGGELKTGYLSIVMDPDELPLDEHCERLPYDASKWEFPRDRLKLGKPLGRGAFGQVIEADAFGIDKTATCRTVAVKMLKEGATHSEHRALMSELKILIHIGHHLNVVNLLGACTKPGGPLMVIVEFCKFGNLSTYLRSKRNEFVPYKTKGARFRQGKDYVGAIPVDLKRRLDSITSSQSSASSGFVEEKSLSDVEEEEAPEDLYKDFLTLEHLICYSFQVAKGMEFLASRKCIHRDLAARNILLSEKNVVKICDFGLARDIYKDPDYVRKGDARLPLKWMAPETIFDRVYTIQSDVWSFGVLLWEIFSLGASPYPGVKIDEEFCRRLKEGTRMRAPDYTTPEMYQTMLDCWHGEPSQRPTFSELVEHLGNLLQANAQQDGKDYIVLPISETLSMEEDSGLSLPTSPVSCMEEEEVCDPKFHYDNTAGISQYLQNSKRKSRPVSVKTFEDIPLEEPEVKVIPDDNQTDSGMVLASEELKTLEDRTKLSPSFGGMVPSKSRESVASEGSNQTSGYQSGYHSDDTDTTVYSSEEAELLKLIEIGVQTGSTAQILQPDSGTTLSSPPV
T1 sequence (P21728 whole entry): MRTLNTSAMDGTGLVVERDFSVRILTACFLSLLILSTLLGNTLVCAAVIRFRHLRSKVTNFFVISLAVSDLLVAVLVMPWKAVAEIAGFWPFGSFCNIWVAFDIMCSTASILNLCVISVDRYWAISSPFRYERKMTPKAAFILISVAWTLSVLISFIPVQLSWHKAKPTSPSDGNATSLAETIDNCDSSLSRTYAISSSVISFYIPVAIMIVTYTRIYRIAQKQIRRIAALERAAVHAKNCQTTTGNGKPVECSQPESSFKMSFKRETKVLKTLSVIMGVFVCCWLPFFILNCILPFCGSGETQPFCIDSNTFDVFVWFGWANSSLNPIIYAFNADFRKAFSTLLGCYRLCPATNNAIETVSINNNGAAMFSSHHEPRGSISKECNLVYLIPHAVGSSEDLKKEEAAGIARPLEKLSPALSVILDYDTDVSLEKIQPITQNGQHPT

For orientation: AC50 means the concentration at which the activity in the assay is half-maximal. A low value points to activity at low concentration. Turning to `CN(C)CCC=C1c2ccccc2C(C)(C)c2ccccc21`, the AC50 was 4.5 µM on D(1A) dopamine receptor [1]; above 30 µM in test [2]; above 30 µM at Estrogen receptor [3]; above 30 µM in test [4]; above 30 µM at Estrogen receptor [5]; above 30 µM in test [6].

Turning to `CNC(=O)c1ccccc1Sc1ccc2c(/C=C/c3ccccn3)n[nH]c2c1` [AXITINIB], the AC50 (at D(1A) dopamine receptor [1]; in test [4]) was above 30 µM in each case.

Regarding `NCC(CC(=O)O)c1ccc(Cl)cc1` (centres undefined) [BACLOFEN], the AC50 at B1 bradykinin receptor was above 30 µM; on D(1A) dopamine receptor [1], above 30 µM; in test [7], above 30 µM; on D(1A) dopamine receptor [8], above 10 µM; in test [2], above 30 µM; in [4] it was above 30 µM. The AC50 on Substance-P receptor is above 10 µM; in test [9], above 30 µM; in [10] it was above 30 µM; in [6] it was above 30 µM; on Histamine H2 receptor, above 10 µM; in test [11], above 30 µM.

Consider `CC(C)C[C@H]1C(=O)N2CCC[C@H]2[C@]2(O)O[C@](NC(=O)[C@@H]3C=C4c5cccc6[nH]c(Br)c(c56)C[C@H]4N(C)C3)(C(C)C)C(=O)N12` [BROMOCRIPTINE], for which the AC50 on B1 bradykinin receptor is above 30 µM; at D(1A) dopamine receptor [1], above 30 µM; in [7], above 30 µM; on D(1A) dopamine receptor [8] it was above 10 µM; in test [2], above 30 µM; in test [4], above 30 µM. Also, the AC50 was above 30 µM in [9]; 18.9 µM in test [10]; above 30 µM in test [6]; 1.69 µM at Histamine H2 receptor; above 30 µM in test [11].

Take `O=C1Nc2ccc(Cl)cc2[C@@](C#CC2CC2)(C(F)(F)F)O1` [EFAVIRENZ]: the AC50 (on Estrogen receptor [3]; at Estrogen receptor [5]; on Estrogen receptor [12]; in [6]) was above 30 µM throughout.

Turning to `O=C(OCC(O)CO)c1ccccc1Nc1ccnc2cc(Cl)ccc12` (centres undefined) [GLAFENINE], the AC50 was above 30 µM on D(1A) dopamine receptor [1]; 13 µM in [2]; above 10 µM at Estrogen receptor [3]; above 30 µM in test [4]; above 30 µM on Estrogen receptor [5]; above 30 µM in [6].

`C[C@H]1CNCCc2ccc(Cl)cc21` [LORCASERIN]: the AC50 (at D(1A) dopamine receptor [1]; in [2]; on Estrogen receptor [3]; in test [4]; at Estrogen receptor [5]; in [6]) was above 30 µM each time.

Turning to `C[C@@H](O)[C@H]1C(=O)N2C(C(=O)O)=C(S[C@@H]3CN[C@H](C(=O)N(C)C)C3)[C@H](C)[C@H]12` [MEROPENEM], the AC50 (on D(1A) dopamine receptor [1]; in [2]; in test [4]; in test [6]) was above 300 µM throughout.

Take `CCCN1C[C@H](CSC)C[C@@H]2c3cccc4[nH]cc(c34)C[C@H]21` [PERGOLIDE]: the AC50 (on B1 bradykinin receptor; in [7]; in test [2]; on Estrogen receptor [3]; in test [4]; in test [9]) was above 30 µM throughout. The AC50 is 20.8 µM in test [10]; above 30 µM on Estrogen receptor [5]; above 30 µM at Estrogen receptor [12]; above 30 µM in [6]; 3.77 µM at Histamine H2 receptor; above 30 µM in test [11].

For the compound `COCCCN1CCC(NC(=O)c2cc(Cl)c(N)c3c2OCC3)CC1` [PRUCALOPRIDE], the AC50 in [4] and in test [6] was above 30 µM each time.

As to `Cc1cn([C@H]2C=C[C@@H](CO)O2)c(=O)[nH]c1=O` [STAVUDINE], the half-maximal activity concentration (AC50) is above 30 µM at B1 bradykinin receptor; above 30 µM in [7]; above 10 µM on D(1A) dopamine receptor [8]; above 30 µM in test [2]; above 10 µM on Substance-P receptor; above 30 µM in test [9]. The AC50 in test [10] was above 30 µM; at Histamine H2 receptor it was above 10 µM; in test [11], above 30 µM.

`N[C@@H]1[C@H]2CN(c3nc4c(cc3F)c(=O)c(C(=O)O)cn4-c3ccc(F)cc3F)C[C@@H]12` [TROVAFLOXACIN]: the AC50 (at D(1A) dopamine receptor [1]; at Estrogen receptor [3]; in [4]; at Estrogen receptor [5]; in test [6]) was above 30 µM each time.
